These results are taken from patent publication US11065249B2, “Diacylglycerol acyl transferase 2 inhibitor” (Pfizer Inc., priority 2019, dated 2021).

The test system of data set [1] is Western diet fed Sprague-Dawley rats. The data set is described as follows: Rat western diet model: in vivo effects on plasma and hepatic triglyceride levels. As to conditions: oral twice daily 3-100 mg/kg, compared with chow-fed vehicle animals. The text has this: The rat western diet model was utilized to assess the effects of DGAT2 inhibitor treatment on plasma triglyceride production and hepatic triglyceride content in vivo. Male Sprague-Dawley rats were housed under standard laboratory conditions on a 12-hour light, 12-hour dark cycle (lights on at 06:00). Two weeks prior to study start animals were placed on a high-fat, high sucrose, high-cholesterol diet (D12079b, provided by Research Diets, New Brunswick, N.J.). This diet provides ˜43% of kilocalories from carbohydrate and ˜41% of kilocalories from fat. Example 4 was administered orally as a solution (10 mL/kg dosing volume) in 0.5% methylcellulose in deionized water, pH 7.0-7.5 (methylcellulose was obtained from Sigma-Aldrich, St. Louis, Mo.). […] Plasma TG levels were determined using a Roche Hitachi Chemistry analyzer according to the manufacturer's instructions (Roche Diagnostics Corporation, Indianapolis, Ind.) and data was analyzed using GraphPad Prism (GraphPad Software, Inc., La Jolla, Calif.). […] The triglyceride assay was performed through absorbance and reported as milligrams per deciliter. […]
FIG. 4 plots the multiple dose effects of Example 4 on Plasma Triglyceride in Western Diet Fed Sprague-Dawley Rats where plasma triglyceride levels were determined from blood drawn from the lateral tail vein 2-hours following the final dose of Example 4. […]

Data set [2] in a line: Determination of pKa (capillary electrophoresis, Analiza). It counts as physicochemical. As to conditions: most basic pKa, mean.
The nature of data set [3]: Intrinsic clearance in human hepatocytes (relay method). Type of data set: in vitro ADME. As to conditions: cryopreserved human hepatocytes (suspension), relay hepatocyte assay, 1 μM test compound, mean +/− Std Dev. The procedure:
Cryopreserved human hepatocytes (Lot DCM from BioreclamationIVT) were used. […] At time 0 and 4 h, 25 μL of hepatocyte suspension was removed from the incubation and added to 50 μL of ice-cold acetonitrile (containing metoprolol, indomethacin, and terfenadine as internal standards) to quench the reaction. The samples were centrifuged (Eppendorf, Hauppauge, N.Y.) at 3000 rpm (1439×g) for 10 min at room temperature, and 50 μL of supernatant was transferred to a clean plate, dried completely, and reconstituted before liquid chromatography/tandem mass spectrometry (LC-MS/MS) analysis. The remaining hepatocyte suspensions in the incubation plate were centrifuged (3000 rpm, 1439×g, 10 min, room temperature). The supernatant of 300 μL was transferred to a clean 24-well plate and stored at −80° C. until the next relay experiment. For the second relay experiment, the supernatant plates were warmed first to room temperature for 30 minutes, then to 37° C. for 30 min, and hepatocytes were added to the samples to give a final cell density of 0.5 million cells/mL. The plates were incubated at 37° C. for 4 h, sampled, and processed as described above. Five relays were performed to give a total incubation time of 20 h, with sampling points at (0, 4, 8, 12, 16 and 20 h). The concentrations of test compound determined at each time point by the LC-MS/MS analysis were used to calculate the intrinsic clearance.

Data set [4] in a line: High throughput determination of intrinsic clearance in human hepatocytes. It counts as in vitro ADME. As to conditions: human, pooled cryopreserved human hepatocytes (suspension), high throughput human hepatocyte assay, 1 μM test compound; mean +/− Std Dev. The procedure:
The incubation was carried out at 37° C. […] The samples were centrifuged (Eppendorf, Hauppauge, N.Y.) at 3000 rpm for 5 min at 4° C.

Data set [5] can be described thus: Intrinsic clearance in human liver microsomes. It counts as in vitro ADME. As to conditions: human, pooled human liver microsomes, pH 7.4, human liver microsome assay, 1 μM test compound; mean +/− STD Dev. The procedure:
The incubations were conducted at 37° C. […] (Sorvall R C 3C Plus, Thermo Scientific, Waltham, Mass.).
Background: Liver microsomes are a subcellular fraction often used to study metabolism.

Data set [6] is described as follows: Thermodynamic solubility in various biorelevant media (PBS, SGN, FaSSIF, FeSSIF). Type of data set: physicochemical. As to conditions: 25 °C, thermodynamic from solid. The procedure: The solubility of active pharmaceutical ingredients is an important characteristic in determining biological performance and ease of formulation during drug development, with high solubility being preferred (Klein, S. 2010, The AAPS Journal, 12, 397-406; Di, L., et al 2012, Drug Disc. Today, 17.486-495). A test sample of crystalline solid (˜7 mg) was combined in a vial with 1 mL of the relevant buffer solution and the mixture vortexed to combine. If the solid dissolved completely, additional solid was added with vortexing until a saturated solution was obtained. The saturated solution/solid mixture was capped and subjected to temperature cycling as follows: 1 min at 25° C.; 8 h at 40° C.; 5 h at 15° C. and 12 h at 25° C. The mixture was filtered in a centrifugal filtration device (0.22 μm PVDF filter, MilliporeSigma, Milwaukee, Wis.) at 13,000 rpm and the concentration of the test compound in the filtrate was determined by HPLC/UPLC with reference to a three point standard curve. Phosphate buffered saline (PBS, pH 6.8, 50 mM phosphate buffer, 250 mM NaCl). Simulated gastric fluid (SGN pH 1.2, USP recipe). Fasted state simulated intestinal fluid (FaSSIF, 3 mM sodium taurocholate, 0.75 mM phospholipid from soybean lecithin, 50 mM phosphate buffer, ionic strength adjusted to 250 mM with NaCl, pH 6.8) and fed state simulated intestinal fluid (FeSSIF, 15 mM sodium taurocholate, 3.75 mM phospholipid from soybean lecithin, 144 mM acetic acid, 50 mM phosphate buffer, ionic strength adjusted to 250 mM with NaCl, pH 6.8).

The structures appear in SMILES notation. Converted amounts (≈) assume the structure as drawn.

By pKa is commonly meant the negative logarithm of the acid dissociation constant. High values mean a weaker acid or stronger base, low ones a stronger acid or weaker base. In general, hepatocyte CLint refers to a measure of how fast metabolising enzymes remove a compound, apart from limits set by blood flow. Lower therefore signals greater metabolic stability. One may read the microsomal CLint as the rate of metabolic loss divided by the concentration. A low value points to slow turnover. One may read the solubility as the concentration that dissolves in the medium under given conditions. For `CCOc1cccnc1Oc1cncc(-c2ncc(C(=O)N[C@@H]3CNC[C@@H](F)C3)cn2)c1` [Example 4, 2-{5-[(3-Ethoxypyridin-2-yl)oxy]pyridin-3-yl}-N-[(3S,5S)-5-fluoropiperidin-3-yl]pyrimidine-5-carboxamide], the “circulating triglyceride response, resulting levels” value in data set [1] is reported as “approached those of the chow-fed vehicle animals”. For the same compound, the pKa in data set [2] turned out to be 7.5. Further, the hepatocyte CLint at 1 μM in data set [3] was 0.98 µL/min/1e6 cells; in data set [4] it was less than 1.8 µL/min/1e6 cells. The compound further had an intrinsic metabolic clearance (microsomal CLint) at 1 μM in data set [5] of less than 7 µL/min/mg. Also, the solubility at 25 h in data set [6] (fasted state simulated intestinal fluid (FaSSIF), FaSSIF pH 6.8) is 955 µg/mL (≈ 2180 µM); in data set [6] (phosphate buffered saline, aqueous buffer, PBS, pH 6.8), 580 µg/mL (≈ 1320 µM); in data set [6] (simulated gastric fluid, SGN pH 1.2), more than 27000 µg/mL.
